The values that follow come from US9983218B2, “Indole and indoline derivatives and methods of use thereof” (AbbVie Inc., priority 2008, dated 2018).

In the test the test system is SK-N-SH human neuroblastoma cells. Put plainly: Serum deprivation/JC-1 mitochondrial membrane potential (MMP) assay. It is filed as cell-based. The conditions noted are these: Homo sapiens; for Emax: SK-N-SH, percent maximal intensity in JC-1 ratio normalized to 10 μM dimebolin, read-out: JC-1 max %; for EC50: SK-N-SH cells, serum deprivation ~18 hours, JC-1 ratio normalized to peak value for 10 μM dimebolin, single curve fit to mean data of n=2-3, read-out: EC50. Put shortly: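 Cells were serum-deprived ~18 h in MEM with or without compound (DMSO ≤1%), then stained with JC-1 for 35 min at 37° C. The red/green fluorescence ratio (560/595 vs 485/535 nm) was normalized to the peak response of 10 μM dimebolin. EC50 came from one curve fit to mean data (n=2-3, duplicates).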

In general, EC50 refers to the midpoint of the concentration-response curve. In the case of `CC(C)N(C)c1ccc(Cn2c3c(c4cc(F)ccc42)CN2CCC3CC2)cn1` [Example 242, 5-[(9-fluoro-1,3,4,5-tetrahydro-6H-2,5-ethanoazepino[4,3-b]indol-6-yl)methyl]-N-isopropyl-N-methylpyridin-2-amine], the Emax turned out to be 169% and the 50% effective concentration (EC50) was 8.12 µM.

`CN(CC1OCCO1)c1ccc(Cn2c3c(c4cc(F)ccc42)CN2CCC3CC2)cn1` [Example 243, N-(1,3-dioxolan-2-ylmethyl)-5-[(9-fluoro-1,3,4,5-tetrahydro-6H-2,5-ethanoazepino[4,3-b]indol-6-yl)methyl]-N-methylpyridin-2-amine]: the Emax worked out at 169% and the concentration giving a half-maximal response (EC50) turned out to be 8.36 µM.

For the compound `Fc1ccc2c(c1)c1c(n2Cc2ccc(N3CCCC3)nc2)C2CCN(CC2)C1` [Example 244, 9-fluoro-6-{[6-(pyrrolidin-1-yl)pyridin-3-yl]methyl}-3,4,5,6-tetrahydro-1H-2,5-ethanoazepino[4,3-b]indole], the Emax was 226% and the EC50 came to 5.65 µM.

For `COCCN(C)c1ccc(Cn2c3c(c4cc(F)ccc42)CN2CCC3CC2)cn1` [Example 245, 5-[(9-fluoro-1,3,4,5-tetrahydro-6H-2,5-ethanoazepino[4,3-b]indol-6-yl)methyl]-N-(2-methoxyethyl)-N-methylpyridin-2-amine], the Emax is 189% and the EC50 came to 10 µM.

Regarding `Fc1cncc(Cn2c3c(c4cc(F)ccc42)CN2CCC3CC2)c1` [Example 246, 9-fluoro-6-[(5-fluoropyridin-3-yl)methyl]-3,4,5,6-tetrahydro-1H-2,5-ethanoazepino[4,3-b]indole], the Emax came out at 148% and the EC50 is 8.76 µM.

Regarding `Fc1ccc2c(c1)c1c(n2Cc2ccc(-n3cccn3)nc2)C2CCN(CC2)C1` [Example 247, 9-fluoro-6-{[6-(1H-pyrazol-1-yl)pyridin-3-yl]methyl}-3,4,5,6-tetrahydro-1H-2,5-ethanoazepino[4,3-b]indole], the Emax came to 192% and the EC50 was 4.65 µM.

`Fc1ccc2c(c1)c1c(n2Cc2cnc(-c3ccccc3)nc2)C2CCN(CC2)C1` [Example 249, 9-fluoro-6-[(2-phenylpyrimidin-5-yl)methyl]-3,4,5,6-tetrahydro-1H-2,5-ethanoazepino[4,3-b]indole]: the Emax stood at 133% and the EC50 amounted to 5.27 µM.

For `Fc1ccc2c(c1)c1c(n2Cc2nc3ccccc3[nH]2)C2CCN(CC2)C1` [Example 250, 6-(1H-benzimidazol-2-ylmethyl)-9-fluoro-3,4,5,6-tetrahydro-1H-2,5-ethanoazepino[4,3-b]indole], the Emax amounted to 77.3% and the EC50 worked out at 8.37 µM.

On to `Fc1ccc2c(c1)c1c(n2Cc2cccc3cccnc23)C2CCN(CC2)C1` [Example 251, 9-fluoro-6-(quinolin-8-ylmethyl)-3,4,5,6-tetrahydro-1H-2,5-ethanoazepino[4,3-b]indole], for which the Emax was determined as 193% and the EC50 came to 4.39 µM.

Regarding `Cc1cc(Cn2c3c(c4cc(F)ccc42)CN2CCC3CC2)on1` [Example 252, 9-fluoro-6-[(3-methyl-1,2-oxazol-5-yl)methyl]-3,4,5,6-tetrahydro-1H-2,5-ethanoazepino[4,3-b]indole], the Emax stood at 109% and the EC50 was 6.2 µM.

For `Fc1ccc2c(c1)c1c(n2Cc2cn3nc(Cl)ccc3n2)C2CCN(CC2)C1` [Example 253, 6-[(6-chloroimidazo[1,2-b]pyridazin-2-yl)methyl]-9-fluoro-3,4,5,6-tetrahydro-1H-2,5-ethanoazepino[4,3-b]indole], the Emax amounted to 185% and the concentration for a half-maximal effect (EC50) is 4.4 µM.

With `Fc1ccc2c(c1)c1c(n2Cc2cn3cccnc3n2)C2CCN(CC2)C1` [Example 254, 9-fluoro-6-(imidazo[1,2-a]pyrimidin-2-ylmethyl)-3,4,5,6-tetrahydro-1H-2,5-ethanoazepino[4,3-b]indole], the Emax was 57.1% and the EC50 stood at 8.09 µM.

Take `O=c1cccnn1-c1ccc(Cn2c3c(c4cc(F)ccc42)CN2CCC3CC2)cc1` [Example 255, 2-{4-[(9-fluoro-1,3,4,5-tetrahydro-6H-2,5-ethanoazepino[4,3-b]indol-6-yl)methyl]phenyl}pyridazin-3(2H)-one]: the Emax was 171% and the EC50 turned out to be 5.72 µM.

`FC(F)(F)c1ccc(Cn2c3c(c4ccccc42)CN2CCC3CC2)cn1` [Example 256, 6-{[6-(trifluoromethyl)pyridin-3-yl]methyl}-3,4,5,6-tetrahydro-1H-2,5-ethanoazepino[4,3-b]indole]: the Emax came out at 89.6% and the EC50 is 15.5 µM.

For the compound `Clc1ccc2nc(Cn3c4c(c5ccccc53)CN3CCC4CC3)cn2n1` [Example 257, 6-[(6-chloroimidazo[1,2-b]pyridazin-2-yl)methyl]-3,4,5,6-tetrahydro-1H-2,5-ethanoazepino[4,3-b]indole], the Emax is 155% and the EC50 came to 3.6 µM.

Regarding `O=c1ccccn1-c1cccc(-n2c3c(c4cc(F)ccc42)CN2CCC3CC2)n1` [Example 258, 6′-(9-fluoro-1,3,4,5-tetrahydro-6H-2,5-ethanoazepino[4,3-b]indol-6-yl)-2H-1,2′-bipyridin-2-one], the Emax is 149% and the EC50 was 2.99 µM.

On to `Oc1ncnc2ccc(-n3c4c(c5cc(F)ccc53)CN3CCC4CC3)cc12` [Example 259, 6-(9-fluoro-1,3,4,5-tetrahydro-6H-2,5-ethanoazepino[4,3-b]indol-6-yl)quinazolin-4-ol], for which the Emax amounted to 126% and the EC50 turned out to be 3.2 µM.

Consider `O=c1cnc2ccc(-n3c4c(c5cc(F)ccc53)CN3CCC4CC3)cc2[nH]1` [Example 260, 7-(9-fluoro-1,3,4,5-tetrahydro-6H-2,5-ethanoazepino[4,3-b]indol-6-yl)quinoxalin-2(1H)-one], for which the Emax is 191% and the EC50 turned out to be 2.91 µM.

With `Cc1ncc(-n2c3c(c4cc(F)ccc42)CN2CCC3CC2)cn1` [Example 263, 9-fluoro-6-(2-methylpyrimidin-5-yl)-3,4,5,6-tetrahydro-1H-2,5-ethanoazepino[4,3-b]indole], the Emax stood at 108% and the EC50 came to 11 µM.

Take `c1cc(N2CCOCC2)nc(-n2c3c(c4ccccc42)CN2CCC3CC2)c1` [Example 265, 6-[6-(morpholin-4-yl)pyridin-2-yl]-3,4,5,6-tetrahydro-1H-2,5-ethanoazepino[4,3-b]indole]: the Emax was 264% and the EC50 was 1.84 µM.

As to `NC(=O)c1ccc(-n2c3c(c4ccccc42)CN2CCC3CC2)nc1` [Example 266, 6-(1,3,4,5-tetrahydro-6H-2,5-ethanoazepino[4,3-b]indol-6-yl)nicotinamide], the Emax was 127% and the EC50 was 10.7 µM.

Regarding `c1ccc2c(c1)c1c(n2-c2ccc3c(c2)CCNC3)C2CCN(CC2)C1` [Example 267, 6-(1,2,3,4-tetrahydroisoquinolin-6-yl)-3,4,5,6-tetrahydro-1H-2,5-ethanoazepino[4,3-b]indole], the Emax turned out to be 70% and the 50% effective concentration (EC50) turned out to be 9.72 µM.

Consider `CN1CCc2cc(-n3c4c(c5ccccc53)CN3CCC4CC3)ccc2C1` [Example 268, 6-(2-methyl-1,2,3,4-tetrahydroisoquinolin-6-yl)-3,4,5,6-tetrahydro-1H-2,5-ethanoazepino[4,3-b]indole], for which the Emax worked out at 237% and the EC50 came to 4.43 µM.
